One assay concerns the target human factor XIa (Homo sapiens, UniProt P03951). Description: Factor XIa Assay. It is filed as biochemical. As to conditions: human factor XIa 0.04 nM, substrate GPR-AFC, 30 min pre-incubation at 25° C., pH 7.4; read-out: FXIa IC50. How it is done:
The effectiveness of a compound of the present invention as an inhibitor of Coagulation factor XIa can be determined using a relevant purified serine protease, and an appropriate synthetic substrate. The rate of hydrolysis of the chromogenic or fluorogenic substrate by the relevant serine protease was measured both in the absence and presence of compounds of the present invention. Assays were conducted at rt or at 37° C. […] A decrease in the rate of fluorescence change in the presence of inhibitor is indicative of enzyme inhibition. Such methods are known to one skilled in the art. The results of this assay are expressed as the half-maximal inhibitory concentrations (IC50), or the inhibitory constant, Ki.
Compounds were pre-incubated for 30 min at 25° C. with human (0.04 nM) factor XIa in 50 mM HEPES buffer with 150 mM sodium chloride, 5 mM calcium chloride, 0.1% PEG 8000, pH 7.4. factor XIa enzymatic activity was determined by addition of the substrate glycine-proline-arginine-7-amido-4-trifluoromethylcoumarin (GPR-AFC) and measurement of the fluorescence at 400/505 nm after a 60 min incubation at 25° C. The % inhibition for each data point was calculated from the data and analyzed using the log (inhibitor) vs. response four parameters equation to determine the half-maximal inhibitory concentrations (IC50). The IC50 were converted to equilibrium inhibitory constants (Ki) using the Cheng-Prusoff equation.

Another assay concerns the target T1, Human plasma kallikrein (Homo sapiens, UniProt P03952).
T1 construct: yields a heavy chain (371 amino acids) and a light chain (248 amino acids); purchased Enzyme Research Laboratories
Description: Plasma Kallikrein Assay. It is filed as biochemical. As to conditions: purified Human plasma kallikrein 0.5 nM, substrate Acetyl-K-P-R-AFC, pH 7.4.

T1 sequence (P03952 391-638 limits assumed): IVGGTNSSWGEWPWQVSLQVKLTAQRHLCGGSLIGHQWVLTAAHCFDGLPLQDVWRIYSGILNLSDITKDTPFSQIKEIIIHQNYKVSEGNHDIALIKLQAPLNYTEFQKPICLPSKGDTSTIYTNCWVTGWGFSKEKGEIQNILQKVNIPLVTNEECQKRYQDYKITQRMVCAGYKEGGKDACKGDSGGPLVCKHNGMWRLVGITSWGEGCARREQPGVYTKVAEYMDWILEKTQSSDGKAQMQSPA
T1 sequence (P03952 20-390 partner limits assumed): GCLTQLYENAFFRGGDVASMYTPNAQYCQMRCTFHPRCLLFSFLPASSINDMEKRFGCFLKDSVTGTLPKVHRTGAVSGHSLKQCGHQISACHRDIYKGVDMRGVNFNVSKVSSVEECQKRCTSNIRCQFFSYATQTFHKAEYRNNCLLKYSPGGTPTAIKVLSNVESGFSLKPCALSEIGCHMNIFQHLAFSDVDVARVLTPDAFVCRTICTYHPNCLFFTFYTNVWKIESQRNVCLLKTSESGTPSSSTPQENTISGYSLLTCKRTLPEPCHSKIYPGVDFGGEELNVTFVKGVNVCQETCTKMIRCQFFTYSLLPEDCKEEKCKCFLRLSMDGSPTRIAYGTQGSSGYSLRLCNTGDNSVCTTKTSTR
Sequence of human factor XIa (P03951 388-625 limits assumed): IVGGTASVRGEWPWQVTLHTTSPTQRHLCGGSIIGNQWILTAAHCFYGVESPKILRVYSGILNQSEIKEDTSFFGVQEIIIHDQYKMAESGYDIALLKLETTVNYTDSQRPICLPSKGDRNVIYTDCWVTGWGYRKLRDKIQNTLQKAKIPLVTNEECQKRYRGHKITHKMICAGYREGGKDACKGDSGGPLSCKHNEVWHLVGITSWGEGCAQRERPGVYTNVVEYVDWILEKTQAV
Sequence of human factor XIa (P03951 19-387 partner limits assumed): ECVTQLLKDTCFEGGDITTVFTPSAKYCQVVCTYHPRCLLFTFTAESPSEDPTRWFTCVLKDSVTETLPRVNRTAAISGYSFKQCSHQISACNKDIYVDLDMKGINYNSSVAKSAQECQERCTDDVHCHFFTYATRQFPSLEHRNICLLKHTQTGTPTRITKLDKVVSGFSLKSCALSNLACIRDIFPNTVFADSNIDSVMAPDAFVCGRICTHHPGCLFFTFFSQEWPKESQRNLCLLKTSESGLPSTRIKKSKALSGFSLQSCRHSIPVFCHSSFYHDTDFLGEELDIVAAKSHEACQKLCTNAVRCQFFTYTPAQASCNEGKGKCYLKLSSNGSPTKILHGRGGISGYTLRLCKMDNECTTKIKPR

For `O=C(Nc1cnn(Cc2cnc(N3CC4CC4C3CO)nc2)c1)c1cncc(-c2c(C(F)F)ccc(Cl)c2F)n1` (single isomer, unassigned) [Example 77, 6-(3-Chloro-6-(difluoromethyl)-2-fluorophenyl)-N-(1-((2-((1R,2S,5S or 1S,2R,5R)-2-(hydroxymethyl)-3-azabicyclo[3.1.0]hexan-3-yl)pyrimidin-5-yl)methyl)-1H-pyrazol-4-yl)pyrazine-2-carboxamide], the figures for the IC50 at human factor XIa and against Human plasma kallikrein were 2.95 µM and 0.0056 µM, respectively.
As for `CC1(O)CCN(C[C@@H]2CCCN2c2ncc(Cn3cc(NC(=O)c4cncc(-c5c(C(F)F)ccc(Cl)c5F)n4)cn3)cn2)C1` (stereo partly drawn) [Example 144, 6-(3-Chloro-6-(difluoromethyl)-2-fluorophenyl)-N-(1-((2-((2S)-2-((3-hydroxy-3-methylpyrrolidin-1-yl)methyl)pyrrolidin-1-yl)pyrimidin-5-yl)methyl)-1H-pyrazol-4-yl)pyrazine-2-carboxamide], the IC50 (commonly the concentration needed to halve the response being measured) on human factor XIa is 2.34 µM; against Human plasma kallikrein it was 0.0004 µM.
For the compound `Cc1nc(N2CCC2)cnc1C(C)n1cc(NC(=O)c2cncc(-c3c(C(F)F)ccc(Cl)c3F)n2)cn1` (single isomer, unassigned) [Example 41, (S or R)-N-(1-(1-(5-(azetidin-1-yl)-3-methylpyrazin-2-yl)ethyl)-1H-pyrazol-4-yl)-6-(3-chloro-6-(difluoromethyl)-2-fluorophenyl)pyrazine-2-carboxamide], the IC50 came to 4.21 µM on human factor XIa and 0.0021 µM against Human plasma kallikrein.
Turning to `O=C(Nc1cnn(Cc2cnc(N3CCC3)nc2CO)c1)c1cncc(-c2c(C(F)F)ccc(Cl)c2F)n1` [Example 2, N-(1-((2-(Azetidin-1-yl)-4-(hydroxymethyl)pyrimidin-5-yl)methyl)-1H-pyrazol-4-yl)-6-(3-chloro-6-(difluoromethyl)-2-fluorophenyl)pyrazine-2-carboxamide], the half-maximal inhibitory concentration (IC50) at human factor XIa amounted to 1.11 µM; against Human plasma kallikrein it was 0.0158 µM.
Consider `O=C(Nc1cnn([C@H](CO)c2cnc(N3CCC3)nc2)c1)c1cncc(-c2c(C(F)F)ccc(Cl)c2F)n1` (single isomer, unassigned) [Example 7], for which the results for the IC50 on human factor XIa and at Human plasma kallikrein were 1.42 µM and 0.0521 µM, respectively.
Regarding `COc1nc(N2CCC2)ncc1Cn1cc(NC(=O)c2cncc(-c3c(C(F)F)ccc(Cl)c3F)n2)cn1` [Example 23, N-(1-((2-(Azetidin-1-yl)-4-methoxypyrimidin-5-yl)methyl)-1H-pyrazol-4-yl)-6-(3-chloro-6-(difluoromethyl)-2-fluorophenyl)pyrazine-2-carboxamide], the IC50 was 1.76 µM on human factor XIa and 0.026 µM against Human plasma kallikrein.
For the compound `CN(CC1CCCN1c1ncc(Cn2cc(NC(=O)c3cncc(-c4c(C(F)F)ccc(Cl)c4F)n3)cn2)cn1)CC1(O)CC1` (single isomer, unassigned) [Example 140, (S or R)-6-(3-Chloro-6-(difluoromethyl)-2-fluorophenyl)-N-(1-((2-(2-((((1-hydroxycyclopropyl)methyl)(methyl)amino)methyl)pyrrolidin-1-yl)pyrimidin-5-yl)methyl)-1H-pyrazol-4-yl)pyrazine-2-carboxamide], the IC50 worked out at 1.29 µM on human factor XIa and 0.0002 µM at Human plasma kallikrein.
Taken in the same sequence, the figures for `NCC1CCCN1c1ncc(Cn2cc(NC(=O)c3cncc(-c4c(C(F)F)ccc(Cl)c4F)n3)cn2)cn1` (stereo not drawn) [Example 81, N-(1-((2-(2-(Aminomethyl)pyrrolidin-1-yl)pyrimidin-5-yl)methyl)-1H-pyrazol-4-yl)-6-(3-chloro-6-(difluoromethyl)-2-fluorophenyl)pyrazine-2-carboxamide] were 3.94 µM and 0.0074 µM.
Regarding `CC(c1cnc(N2CC(F)(F)C2)nc1)n1cc(NC(=O)c2cncc(-c3c(C(F)F)ccc(Cl)c3F)n2)cn1` (stereo not drawn) [Example 82, 6-(3-Chloro-6-(difluoromethyl)-2-fluorophenyl)-N-(1-(1-(2-(3,3-difluoroazetidin-1-yl)pyrimidin-5-yl)ethyl)-1H-pyrazol-4-yl)pyrazine-2-carboxamide], the IC50 came to 6.01 µM on human factor XIa and 0.0093 µM against Human plasma kallikrein.
Turning to `CC(c1cnc(N2CCC2)nc1)n1cc(NC(=O)c2cncc(-c3c(Br)ccc(Cl)c3F)n2)cn1` (stereo not drawn) [Example 62, N-(1-(1-(2-(Azetidin-1-yl)pyrimidin-5-yl)ethyl)-1H-pyrazol-4-yl)-6-(6-bromo-3-chloro-2-fluorophenyl)pyrazine-2-carboxamide], the IC50 at human factor XIa worked out at 2.15 µM; at Human plasma kallikrein it was 0.0178 µM.
Taken in the same sequence, the figures for `Cc1cc(N2CCC2)ncc1[C@H](C)n1cc(NC(=O)c2cncc(-c3c(C(F)F)ccc(Cl)c3F)n2)cn1` (single isomer, unassigned) [Example 66] were 0.639 µM and 0.0039 µM.
Taken in the same sequence, the figures for `C[C@@H](c1cnc(N2CCC2)nc1)n1cc(NC(=O)c2cncc(-c3c(C(F)(F)F)ccc(Cl)c3F)n2)cn1` (single isomer, unassigned) [Example 55] were 3.94 µM and 0.0244 µM.
Taken in the same sequence, the figures for `N#Cc1cc(N2CCC2)ncc1Cn1cc(NC(=O)c2cncc(-c3c(C(F)F)ccc(Cl)c3F)n2)cn1` [Example 16, N-(1-((6-(Azetidin-1-yl)-4-cyanopyridin-3-yl)methyl)-1H-pyrazol-4-yl)-6-(3-chloro-6-(difluoromethyl)-2-fluorophenyl)pyrazine-2-carboxamide] were 1.05 µM and 0.0084 µM.
On to `CO[C@H]1CN(C[C@@H]2CCN2c2ncc(C(C)n3cc(NC(=O)c4cncc(-c5c(C(F)F)ccc(Cl)c5F)n4)cn3)cn2)C[C@@H]1O` (stereo partly drawn) [Example 165, 6-(3-Chloro-6-(difluoromethyl)-2-fluorophenyl)-N-(1-(1-(2-((S)-2-(((3S,4S)-3-hydroxy-4-methoxypyrrolidin-1-yl)methyl)azetidin-1-yl)pyrimidin-5-yl)ethyl)-1H-pyrazol-4-yl)pyrazine-2-carboxamide], for which the IC50 at human factor XIa was 4.27 µM; against Human plasma kallikrein, 0.0014 µM.
Taken in the same sequence, the figures for `CC(c1cnc(N2CC[C@H]2[C@@H](C)N2C[C@@H](O)[C@@H](O)C2)nc1)n1cc(NC(=O)c2cncc(-c3c(C(F)F)ccc(Cl)c3F)n2)cn1` (stereo partly drawn) [Example 187, 6-(3-Chloro-6-(difluoromethyl)-2-fluorophenyl)-N-(1-(1-(2-((S)-2-((R)-1-((3R,4S)-3,4-dihydroxypyrrolidin-1-yl)ethyl)azetidin-1-yl)pyrimidin-5-yl)ethyl)-1H-pyrazol-4-yl)pyrazine-2-carboxamide] were 3.33 µM and 0.001 µM.
Consider `C[C@H](CO)NC[C@@H]1[C@@H]2C[C@@H]2CN1c1ncc(Cn2cc(NC(=O)c3cncc(-c4c(C(F)F)ccc(Cl)c4F)n3)cn2)cn1` [Example 143, 6-(3-Chloro-6-(difluoromethyl)-2-fluorophenyl)-N-(1-((2-((1R,2S,5S)-2-((((R)-1-hydroxypropan-2-yl)amino)methyl)-3-azabicyclo[3.1.0]hexan-3-yl)pyrimidin-5-yl)methyl)-1H-pyrazol-4-yl)pyrazine-2-carboxamide], for which the figures for the IC50 on human factor XIa and against Human plasma kallikrein were 0.528 µM and 0.0004 µM, respectively.
Taken in the same sequence, the figures for `Cc1nc(N2CCC2)ncc1[C@@H](C)n1cc(NC(=O)c2cncc(-c3c(C(F)F)ccc(Cl)c3F)n2)cn1` (single isomer, unassigned) [Example 70] were 0.485 µM and 0.0014 µM.
Turning to `COc1ccc(-n2cnnn2)c(-c2cncc(C(=O)Nc3cnn(C(C)c4cnc(N5CCC5)nc4)c3)n2)c1` (single isomer, unassigned) [Example 60, (S or R)-N-(1-(1-(2-(Azetidin-1-yl)pyrimidin-5-yl)ethyl)-1H-pyrazol-4-yl)-6-(5-methoxy-2-(1H-tetrazol-1-yl)phenyl)pyrazine-2-carboxamide], the IC50 at human factor XIa is 0.73 µM; on Human plasma kallikrein it was 0.047 µM.
`Cc1ncc(-c2c(C(F)F)ccc(Cl)c2F)nc1C(=O)Nc1cnn(C(C)c2cnc(N3CCC3)nc2)c1` (single isomer, unassigned) [Example 27, (S or R)-N-(1-(1-(2-(azetidin-1-yl)pyrimidin-5-yl)ethyl)-1H-pyrazol-4-yl)-6-(3-chloro-6-(difluoromethyl)-2-fluorophenyl)-3-methylpyrazine-2-carboxamide]: the IC50 on human factor XIa was found to be 0.869 µM; on Human plasma kallikrein, 0.0038 µM.
As for `O=C(Nc1cnn(Cc2cnc(N3CCC3)nc2C(F)F)c1)c1cncc(-c2c(C(F)F)ccc(Cl)c2F)n1` [Example 19, N-(1-((2-(Azetidin-1-yl)-4-(difluoromethyl)pyrimidin-5-yl)methyl)-1H-pyrazol-4-yl)-6-(3-chloro-6-(difluoromethyl)-2-fluorophenyl)pyrazine-2-carboxamide], the IC50 at human factor XIa worked out at 4.63 µM; against Human plasma kallikrein, 0.0146 µM.
Taken in the same sequence, the figures for `O=C(Nc1cnn(C(CO)c2cnc(N3CC4CC4C3)nc2)c1)c1cncc(-c2c(C(F)F)ccc(Cl)c2F)n1` (single isomer, unassigned) [Example 45, N-(1-((R or S)-1-(2-(3-Azabicyclo[3.1.0]hexan-3-yl)pyrimidin-5-yl)-2-hydroxyethyl)-1H-pyrazol-4-yl)-6-(3-chloro-6-(difluoromethyl)-2-fluorophenyl)pyrazine-2-carboxamide] were 0.992 µM and 0.0232 µM.

The values are drawn from US20230416227A1, “PLASMA KALLIKREIN INHIBITORS” (Merck Sharp & Dohme LLC, priority 2020, published 2023).
